In publication PMC7734623 (Antiviral chemistry & chemotherapy, 2012):
Values after ≈ are worked out from the molar mass of the structure shown. Counter-ions that a name gives are not always drawn. Like-named read-outs stand apart in the source and are kept apart here.

Experiments:
[1] = system: primary human peripheral blood mononuclear cells
[2] = system: HIV-1LAI; assay: HIV-1 replication reverse transcriptase assay in PBMC; assay type: cell-based, HIV type-1; conditions: for anti-HIV-1 activity (in words): HIV-1LAI in human PBMC
[3] = system: A/duck/Minnesota/1525/81 (low pathogenic avian influenza H5N1); assay: microbe, parasite or virus in culture; assay type: cell-based, Influenza A virus (H5N1 low pathogenic)
[4] = in vitro; conditions: dog
[5] = system: human parainfluenza virus type 3 (isolate 14702); assay: microbe, parasite or virus in culture; assay type: cell-based
[6] = system: A/Perth/16/2009 (seasonal H3N2); assay: microbe, parasite or virus in culture; assay type: cell-based, Influenza A virus (H3N2)
[7] = system: A/California/07/2009 (pandemic swine-origin H1N1); assay: microbe, parasite or virus in culture; assay type: cell-based, Influenza A virus (H1N1)
[8] = in vitro; conditions: African green monkey
[9] = system: B/Florida/4/2006; assay: microbe, parasite or virus in culture; assay type: cell-based, Influenza B virus
[10] = system: A/Vietnam/1203/2004 (highly pathogenic avian influenza H5N1); assay: microbe, parasite or virus in culture; assay type: cell-based, Influenza A virus (H5N1 highly pathogenic)
[11] = system: primary human peripheral blood mononuclear cells; assay: Cytotoxicity on PBMCs; conditions: for CC50: experiment 1, PBMC
[12] = system: severe acute respiratory syndrome (SARS) coronavirus (strain Urbani); assay: microbe, parasite or virus in culture; assay type: cell-based
[13] = system: Madin–Darby canine kidney (MDCK) cells; conditions: A/duck/Minnesota/1525/81 test
[14] = system: MA-104 embryonic African green monkey kidney epithelial cells
[15] = system: Vero 76 African green monkey kidney epithelial cells
[16] = Hydrolytic stability of DMSO stock solution under freezing–; conditions: multiple freezing–(re-thawing) cycles
[17] = in vitro; conditions: African green monkey; remark: listed apart in the source
[18] = in vitro; conditions: human
[19] = experiment 1, PBMC, 9: fresh DMSO stock
[20] = experiment 1, PBMC, RT activity in supernatant, 9: fresh DMSO stock
[21] = experiment 1, DMSO stock after second FRC
[22] = experiment 2, PBMC, 9: fresh DMSO stock
[23] = Human immunodeficiency virus 1, PBMC, experiment 1, PBMC, 9: fresh DMSO stock
[24] = Human immunodeficiency virus 1, PBMC, experiment 2, PBMC, 9: fresh DMSO stock

With `Nc1nc2ncc(CNc3ccc(C(=O)N[C@@H](CCC(=O)[O-])C(=O)[O-])cc3)nc2c(=O)[nH]1.O.O.O.O.[Na+].[Na+]` [Compound 11, Disodium (2S)-2-(pteroylamino)pentanedioate×4 H2O] the CC50 [1] was > 100 µM, the “anti-HIV-1 activity (in words)” value [2] was “did not show any anti-HIV-1 activity” and the EC90 [2, 19] was > 100 µM. The EC50 [2, 20] was > 100 µM.

In the case of `CCC(CC)O[C@@H]1C=C(C(=O)O)C[C@H](N)[C@H]1NC(C)=O` [oseltamivir carboxylate, (3R,4R,5S)-4-(acetylamino)-5-amino-3-(pentan-3-yloxy)cyclohex-1-ene-1-carboxylic acid, reference compound], the EC50 ([3]; Influenza A virus, H5N1, MDCK) is reported as 0.061 µg/mL and the CC50 [4] is reported as > 10 µg/mL.

In the case of `CC(=NC12CC3CC(CC(C3)C1)C2)c1ccc(F)cc1` [Compound 4, 1-(4-Fluorophenyl)ethanone – tricyclo[3.3.1.1^3,7]dec-1-ylazanylidene (1:1)], the CC50 [1] is reported as > 100 µM, the “anti-HIV-1 activity (in words)” value [2] is reported as “did not show any anti-HIV-1 activity” and the EC90 [2, 19] is reported as > 100 µM. The EC50 [2, 20] was > 100 µM.

In the case of `NC(=O)c1ncn([C@@H]2O[C@H](CO)[C@@H](O)[C@H]2O)n1` [ribavirin, 1-β-D-ribofuranosyl-1H-1,2,4-triazole-3-carboxamide, reference compound], the EC50 ([5]; Human respirovirus 3, MA104) is reported as 14 µg/mL (≈ 57.3 µM), the EC50 ([3]; Influenza A virus, H5N1, MDCK) is reported as 5.4 µg/mL and the CC50 [4] is reported as > 100 µg/mL. The EC50 ([6]; Influenza A virus, H3N2, MDCK) was 2.9 µg/mL (≈ 11.9 µM), the EC50 ([7]; Influenza A virus, H1N1, MDCK) was 4.2 µg/mL (≈ 17.2 µM) and the CC50 [8] was 190 µg/mL (≈ 778 µM). The EC50 ([9]; Influenza B virus, MDCK) was 3.9 µg/mL (≈ 16 µM) and the EC50 ([10]; Influenza A virus, H5N1, MDCK) was 9.4 µg/mL (≈ 38.5 µM).

In the case of `O=C([O-])CC[C@H](NC(=O)c1ccc(NCc2cnc3nc([N-]c4nc5ncc(CNc6ccc(C(=O)N[C@@H](CCC(=O)[O-])C(=O)[O-])cc6)nc5c(=O)[nH]4)[nH]c(=O)c3n2)cc1)C(=O)[O-].[Na+].[Na+].[Na+].[Na+].[Na+]` [Compound 10, Pentasodium (2S,2′S)-2,2′-{azanidediylbis[(4-{[(4-oxo-3,4-dihydropteridine-2,6-diyl)methyl]amino}benzoyl)amino]}dipentanedioate×3 H2O×2.5 acetone], the “anti-HIV-1 activity (in words)” value [2] is reported as “did not show any anti-HIV-1 activity”, the EC90 [2, 19] is reported as > 100 µM and the EC50 [2, 20] is reported as > 100 µM. The CC50 [11] was > 100 µM.

In the case of `Cl.O=C(CNC12CC3CC(CC(C3)C1)C2)c1ccc(F)cc1` [Compound 12, 1-(4-Fluorophenyl)-2-(tricyclo[3.3.1.1^3,7]dec-1-ylamino) ethanone hydrochloride×0.11 H2O], the “inhibition of virus replication (in words)” value (“inhibition” for short) ([12]; SARS coronavirus) is reported as “did not inhibit”, the EC50 ([12]; Urbani, Vero 76 (130 CCID50), neutral red) is reported as 92 µg/mL and the EC50 [5] is reported as >49 µg/mL. For the same compound, the “inhibition” value [5] was “did not inhibit”, the CC50 [13] was 35 µg/mL and the CC50 [1] was > 100 µM. The “inhibition” value ([3]; A/duck/Minnesota/1525/81 (H5N1), amantadine-susceptible) was “did inhibit”, the EC50 ([3]; A/duck/Minnesota/1525/81, MDCK (25 CCID50), neutral red) was 0.95 µg/mL and the EC50 ([3]; low pathogenic H5N1 A/duck/Minnesota/1525/81) was 2.92 µM. For the same compound, the EC50 [6] was >37 µg/mL, the “inhibition” value [6] was “inactive” and the “anti-HIV-1 activity (in words)” value [2] was “did not show any anti-HIV-1 activity”. For the same compound, the EC90 [2, 19] was > 100 µM, the EC50 [2, 20] was > 100 µM and the CC50 [14] was 49 µg/mL. The CC50 [15] was >100 µg/mL, the “activity of DMSO stock solution during multiple FRCs (in words)” value [16] was “did not lose activity” and the EC50 [7] was >36 µg/mL. The “inhibition” value [7] was “inactive”, the EC50 [9] was >50 µg/mL and the “inhibition” value [9] was “inactive”. For the same compound, the “inhibition” value ([10]; A/Vietnam/1203/2004) was “inactive” and the EC50 ([10]; A/Vietnam/1203/2004, MDCK (≤42 CCID50), neutral red) was 50 µg/mL.

In the case of “[1,4-Bis(4-hydroxyphenyl)butane-1,4-dione – 1,4-bis(4-methoxyphenyl)butane-1,4-dione (7) – (2S,2′S)-2,2′-{[(tricyclo[3.3.1.1^3,7]dec-1-ylamino)methanediyl] bis(pteroylimino)}dipentanedioic acid (0.2:1:1)]×3 H2O×0.4 acetone [Compound 9]”, the “antiretroviral activity after first FRC (in words)” value ([2]; DMSO stock after first FRC) is reported as “seriously affected”, the “antiretroviral activity after second FRC (in words)” value ([2]; DMSO stock after second FRC) is reported as “completely lost” and the “anti-HIV-1 activity (in words)” value [2] is reported as “effective inhibitor”. The EC90 ([2]; experiment 1, DMSO stock after first FRC) was 57.7 µM, the EC50 ([2]; experiment 1, DMSO stock after first freezing-(re-thawing) cycle (FRC)) was 32.7 µM and the EC50 [2, 21] was > 100 µM. The EC90 [2, 21] was > 100 µM, the EC90 [2, 19] was 34.2 µM and the EC50 [2, 20] was 3.5 µM. For the same compound, the EC50 [2, 22] was 10.8 µM and the EC90 [2, 22] was 34.8 µM.

With `CC(C)C[C@H](NC(=O)OCc1ccccc1)C(=O)NC(CCC(=O)N(C)C)C(=O)CF` (mixture of isomers) [EP128533, (4RS)-4-[N-(benzyloxycarbonyl)-L-leucylamino]-6-fluoro-5-oxohexanoic acid N,N-dimethylamide, reference compound] the EC50 ([12]; Severe acute respiratory syndrome-related coronavirus, Vero 76) was 1.3 µg/mL and the CC50 [17] was > 100 µg/mL.

With `NC12CC3CC(CC(C3)C1)C2` [1 ×HCl, 1-Adamantanammonium chloride, reference compound] the “anti-HIV-1 activity (in words)” value [2] was “did not show any anti-HIV-1 activity”, the EC90 [2, 23] was > 100 µM and the “SI50 (selectivity index CC50/EC50)” value ([2]; experiment 1) was >1.1. For the same compound, the CC50 [18] was > 100 µM.

For `Nc1nc2ncc(CNc3ccc(C(=O)N[C@@H](CCC(=O)O)C(=O)O)cc3)nc2c(=O)[nH]1.O.O` [Compound 8, L-folic acid dihydrate, reference compound], the “anti-HIV-1 activity (in words)” value [2] was “did not show any anti-HIV-1 activity”, the EC50 [2, 22] was > 100 µM and the EC90 [2, 22] was > 100 µM. For the same compound, the “toxicity in PBMC (in words)” value [11] was “exhibited toxicity” and the CC50 [11] was 25.7 µM.

For `Cc1cn([C@H]2C[C@H](N=[N+]=[N-])[C@@H](CO)O2)c(=O)[nH]c1=O` [AZT, 3′-azido-3′-deoxythymidine, reference compound], the CC50 ([1]; human) was > 100 µM, the EC90 [2, 23] was 0.031 µM and the EC50 [2, 24] was 0.0091 µM. For the same compound, the EC90 [2, 24] was 0.047 µM, the “SI50 (selectivity index CC50/EC50)” value ([2]; experiment 1) was >22,727 and the “SI50 (selectivity index CC50/EC50)” value ([2]; experiment 2) was >10,989. For the same compound, the CC50 [18] was > 100 µM.
